Counter-ions that a name gives are not always drawn. Like-named read-outs stand apart in the source and are kept apart here. Some results are limits rather than exact numbers.

This experiment relates to NQO1 specific enzyme activity in BEAS-2B cells. As to the kind of experiment: BEAS-2B NQO1 MTT assay. Particulars: BEAS-2B cells, 48 hours with compound, MTT readout, read-out: EC50 of NQO1 specific activity induction. It is filed as cell-based. The procedure, abridged: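 NQO1 specific activity, an NRF2 activation marker, read kinetically as absorbance change at 570 nm for 30 min after MTT cocktail addition to crude lysates of BEAS-2B cells exposed 48 h to compound. Three-parameter fit of Delta OD/min against log concentration gives EC50; lysate portion used for Cell Titer Glo.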

As a reminder, the EC50 is the concentration needed to bring the measured effect to its halfway point. With `Cc1ncc(C(c2ccc3c(nnn3C)c2C)C(C)(C)C(=O)O)cc1Cn1ccnc1CC1CCCCCC1` (stereo not drawn) [Example 214, 3-(5-((2-(Cycloheptylmethyl)-1H-imidazol-1-yl)methyl)-6-methylpyridin-3-yl)-3-(1,4-dimethyl-1H-benzo[d][1,2,3]triazol-5-yl)-2,2-dimethylpropanoic Acid, Trifluoroacetic Acid Salt], for the setting “Homo sapiens, BEAS-2B, 48 h”, the concentration for a half-maximal effect (EC50) lay within 100 to 1000 nM.

`CC[C@@H]1CN(Cc2cc([C@H](CC(=O)O)c3ccc4c(nnn4CC)c3Cl)ccc2C)Cc2ccccc2O1` [Example 66, (S)-3-(4-Chloro-1-ethyl-1H-benzo[d][1,2,3]triazol-5-yl)-3-(3-(((R)-2-ethyl-2,3-dihydrobenzo[f][1,4]oxazepin-4(5H)-yl)methyl)-4-methylphenyl)propanoate, Sodium Salt]: the concentration giving a half-maximal response (EC50) lay within 10 to 100 nM.

Consider `Cc1ccc([C@H](CC(=O)O)c2ccc3c(nnn3C)c2C)cc1CN1CCCC(n2cccn2)C1` (single isomer, unassigned) [compound 159], for which the half-maximal effective concentration (EC50) (Homo sapiens, BEAS-2B, 48 h) is 1000 to 10000 nM.

Turning to `CC[C@@H]1CN(Cc2cc(C(CC(=O)O)c3ccc4c(nnn4C)c3C)ccc2C)Cc2ccccc2O1` (stereo partly drawn) [Example 73, 3-(1,4-Diemthyl-1H-benzo[d][1,2,3]triazol-5-yl)-3-(3-(((R)-2-ethyl-2,3-dihydrobenzo[f][1,4]oxazepin-4(5H)-yl)methyl)-4-methylphenyl)propanonic acid, formic acid salt], the 50% effective concentration (EC50) (Homo sapiens, BEAS-2B, 48 h) was in the range of 100 to 1000 nM.

Take `CC[C@@H]1CN(Cc2cc(C(CC(=O)O)c3cc(OC)c4c(nnn4C)c3C)ccc2C)Cc2ccccc2O1` (stereo partly drawn) [Example 45, 3-(3-(((R)-2-Ethyl-2,3-dihydrobenzo[f][1,4]oxazepin-4(5H)-yl)methyl)-4-methylphenyl)-3-(7-methoxy-1,4-dimethyl-1H-benzo[d][1,2,3]triazol-5-yl)propanoic Acid, Formic Acid Salt]: under “Homo sapiens, BEAS-2B, 48 h”, the concentration for a half-maximal effect (EC50) was 100 to 1000 nM.

As to `Cc1ccc2c(c1)OC(C)(C)CN(Cc1cc([C@H](CC(=O)O)c3ccc4c(nnn4C)c3C)ccc1C)C2` [Example 180, (S)-3-(1,4-Dimethyl-1H-benzo[d][1,2,3]triazol-5-yl)-3-(4-methyl-3-((2,2,8-trimethyl-2,3-dihydrobenzo[f][1,4]oxazepin-4(5H)-yl)methyl)phenyl) propanoic acid], the concentration for a half-maximal effect (EC50) (Homo sapiens, BEAS-2B, 48 h) was 10 to 100 nM.

As for `Cc1ccc(C(CC(=O)O)c2ccc3c(nnn3C)c2C)cc1CN1Cc2ccc(Br)cc2O[C@@H](C)C1` (stereo partly drawn) [Example 93, 3-(3-(((S)-8-bromo-2-methyl-2,3-dihydrobenzo[f][1,4]oxazepin-4(5H)-yl)methyl)-4-methylphenyl)-3-(1,4-dimethyl-1H-benzo[d][1,2,3]triazol-5-yl)propanoic Acid, Formic Acid Salt], the EC50 (Homo sapiens, BEAS-2B, 48 h) was 1 to 10 nM.

In the case of `CC[C@@H]1CN(Cc2cc(C(CC(=O)O)c3ccc4c(nnn4C)c3C)ccc2C)Cc2cnccc2O1` (stereo partly drawn) [Example 86, 3-(1,4-Dimethyl-1H-benzo[d][1,2,3]triazol-5-yl)-3-(3-(((R)-2-ethyl-2,3-dihydropyrido[3,4-f][1,4]oxazepin-4(5H)-yl)methyl)-4-methylphenyl)propanoic acid], the EC50 (Homo sapiens, BEAS-2B, 48 h) was 100 to 1000 nM.

For the compound `Cc1ccc([C@@H](CC(=O)O)c2ccc3c(nnn3C)c2C)cc1CN1CCCC(n2cccn2)C1` (single isomer, unassigned; isomer 2) [Example 158], the EC50 lay within 1000 to 10000 nM.

`Cc1ccc([C@H](c2ccc3c(nnn3C)c2C)C(C)(C)C(=O)O)cc1Cc1cnnn1CC1CCCCCC1` (single isomer, unassigned) [Example 242]: for the setting “Homo sapiens, BEAS-2B, 48 h”, the EC50 was in the range of 10 to 100 nM.

On to `CCn1cc(CCC(c2ccc(C)c(CN3Cc4cnccc4OC(C)(C)C3)c2)C(C)C(=O)O)nn1` (single isomer, unassigned) [Example 228, 3-(3-((2,2-Dimethyl-2,3-dihydropyrido[3,4-f][1,4]oxazepin-4(5H)-yl)methyl)-4-methylphenyl)-5-(1-ethyl-1H-1,2,3-triazol-4-yl)-2-methylpentanoic acid], for which the EC50 lay in the range of 100 to 1000 nM.

As for `CC[C@@H]1CN(Cc2cc([C@@H](c3ccc4c(nnn4C)c3C)C(C)(C)C(=O)OCOC(=O)C(C)(C)C)ccc2C)Cc2cnccc2O1` [Example 253, (S)-(Pivaloyloxy)methyl 3-(1,4-dimethyl-1H-benzo[d][1,2,3]triazol-5-yl)-3-(3-(((R)-2-ethyl-2,3-dihydropyrido[3,4-f][1,4]oxazepin-4(5H)-yl)methyl)-4-methylphenyl)-2,2-dimethylpropanoate], the concentration giving a half-maximal response (EC50) (Homo sapiens, BEAS-2B, 48 h) is < 1 nM.

Regarding `Cc1ccc(C(CC(=O)O)c2ccc3c(nnn3C)c2C)cc1CN1Cc2ccccc2OC(C(C)C)C1` (stereo not drawn) [Example 72, 3-(1,4-dimethyl-1H-benzo[d][1,2,3]triazol-5-yl)-3-(3-((2-isopropyl-2,3-dihydrobenzo[f][1,4]oxazepin-4(5H)-yl)methyl)-4-methylphenyl)propanoic acid, formic acid salt], where the note is “Homo sapiens, BEAS-2B, 48 h”, the EC50 lay in the range of 1000 to 10000 nM.

For `Cc1ccc(C(c2ccc3c(nnn3C)c2C)C(C)(C)C(=O)O)cc1CN1CCCc2ccccc2C1` (stereo not drawn) [Example 104, 3-(3-((4,5-Dihydro-1H-benzo[c]azepin-2(3H)-yl)methyl)-4-methylphenyl)-3-(1,4-dimethyl-1H-benzo[d][1,2,3]triazol-5-yl)-2,2-dimethylpropanoic acid], the 50% effective concentration (EC50) (Homo sapiens, BEAS-2B, 48 h) lay in the range of 1 to 10 nM.

Regarding `CC[C@@H]1CN(Cc2cc(C(c3ccc(F)cc3C)C(C)(C)C(=O)O)ccc2C)Cc2ccccc2O1` (stereo partly drawn) [Example 115, 3-(3-(((R)-2-ethyl-2,3-dihydrobenzo[f][1,4]oxazepin-4(5H)-yl)methyl)-4-methylphenyl)-3-(4-fluoro-2-methylphenyl)-2,2-dimethylpropanoic Acid, Formic Acid Salt], the concentration giving a half-maximal response (EC50) (Homo sapiens, BEAS-2B, 48 h) was 1000 to 10000 nM.

As to `CC[C@@H]1CN(Cc2cc(C(CCc3cn(CC)nn3)C(C)C(=O)O)ccc2C)Cc2ncccc2O1` (stereo partly drawn) [Example 224, 5-(1-Ethyl-1H-1,2,3-triazol-4-yl)-3-(3-(((R)-2-ethyl-2,3-dihydropyrido[2,3-f][1,4]oxazepin-4(5H)-yl)methyl)-4-methylphenyl)-2-methylpentanoic Acid, 0.20 Formic Acid Salt], the EC50 (Homo sapiens, BEAS-2B, 48 h) was in the range of 100 to 1000 nM.

Take `CCC1CN(Cc2cc([C@H](CC(=O)O)c3ccc4c(nnn4C)c3C)ccc2C)Cc2ccccc2O1` (stereo partly drawn) [Example 5, (3S)-3-(1,4-Dimethyl-1H-benzo[d][1,2,3]triazol-5-yl)-3-(3-((2-ethyl-2,3-dihydrobenzo[f][1,4]oxazepin-4(5H)-yl)methyl)-4-methylphenyl)propanoic Acid, Trifluoroacetic Acid Salt]: for the setting “Homo sapiens, BEAS-2B, 48 h”, the 50% effective concentration (EC50) lay in the range of 10 to 100 nM.

As to `CCCn1cc(CCC(c2ccc(C)c(Cn3ccnc3CN3CCC(CC)CC3)c2)C(C)(C)C(=O)O)nn1` (single isomer, unassigned) [Example 247, 3-(3-((2-((4-Ethylpiperidin-1-yl)methyl)-1H-imidazol-1-yl)methyl)-4-methylphenyl)-2,2-dimethyl-5-(1-propyl-1H-1,2,3-triazol-4-yl)pentanoic Acid], the EC50 lay in the range of 1 to 10 nM.

For `Cc1ccc(C(CC(=O)O)c2ccc3c(nnn3C)c2C)cc1CN1Cc2cc(C#N)ccc2OC(C)(C)C1` (single isomer, unassigned) [Example 172], the EC50 lay within 10 to 100 nM.

`Cc1ccc([C@H](CC(=O)O)c2ccc3c(nnn3C)c2C)cc1CN1Cc2ccccc2OC(C)(C)C1` [Example 109, (S)-3-(1,4-dimethyl-1H-benzo[d][1,2,3]triazol-5-yl)-3-(3-((2,2-dimethyl-2,3-dihydrobenzo[f][1,4]oxazepin-4(5H)-yl)methyl)-4-methylphenyl)propanoic Acid, Formic Acid Salt]: under “Homo sapiens, BEAS-2B, 48 h”, the EC50 lay in the range of 100 to 1000 nM.

Take `Cc1ccc([C@@H](c2ccc3c(nnn3C)c2C)C(C)(C)C(=O)O)cc1Cn1ccnc1CN1CCCCCC1` [Example 126, (S)-3-(3-((2-(Azepan-1-ylmethyl)-1H-imidazol-1-yl)methyl)-4-methylphenyl)-3-(1,4-dimethyl-1H-benzo[d][1,2,3]triazol-5-yl)-2,2-dimethylpropanoate, Sodium salt]: the EC50 (Homo sapiens, BEAS-2B, 48 h) is 1 to 10 nM.

With `CC[C@@H]1CN(Cc2cc(C(Cc3nnn[nH]3)c3ccc4c(nnn4C)c3C)ccc2C)Cc2ccccc2O1` (stereo partly drawn) [Example 112, (2R)-4-(5-(1-(1,4-dimethyl-1H-benzo[d][1,2,3]triazol-5-yl)-2-(1H-tetrazol-5-yl)ethyl)-2-methylbenzyl)-2-ethyl-2,3,4,5-tetrahydrobenzo[f][1,4]oxazepine, Formic Acid Salt], under “Homo sapiens, BEAS-2B, 48 h”, the half-maximal effective concentration (EC50) lay in the range of 100 to 1000 nM.

Take `Cc1ccc2c(c1)CN(Cc1cc([C@H](CC(=O)O)c3ccc4c(nnn4C)c3C)ccc1C)CC(C)(C)O2` [Example 176, (S)-3-(1,4-Dimethyl-1H-benzo[d][1,2,3]triazol-5-yl)-3-(4-methyl-3-((2,2,7-trimethyl-2,3-dihydrobenzo[f][1,4]oxazepin-4(5H)-yl)methyl)phenyl) propanoic acid]: the concentration for a half-maximal effect (EC50) (Homo sapiens, BEAS-2B, 48 h) lay in the range of 10 to 100 nM.

As for `Cc1ccc(C(CC(=O)O)c2ccc3c(nnn3C)c2C)cc1CN1CCCC(S(=O)(=O)C2CCCCC2)C1` (stereo not drawn) [compound 186, 3-(3-((3-(Cyclohexylsulfonyl)piperidin-1-yl)methyl)-4-methylphenyl)-3-(1,4-dimethyl-1H-benzo[d][1,2,3]triazol-5-yl)propanoic acid], for the setting “Homo sapiens, BEAS-2B, 48 h”, the EC50 was in the range of 100 to 1000 nM.

Consider `CCC1CN(Cc2cc(C(CCc3cn(CC)nn3)CC(=O)O)ccc2C)Cc2ccccc2O1` (stereo not drawn) [Example 4, 5-(1-Ethyl-1H-1,2,3-triazol-4-yl)-3-(3-((2-ethyl-2,3-dihydrobenzo[f][1,4]oxazepin-4(5H)-yl)methyl)-4-methylphenyl)pentanoic Acid, Trifluoroacetic Acid Salt], for which the EC50 (Homo sapiens, BEAS-2B, 48 h) was 1000 to 10000 nM.

For the compound `Cc1c(C(CC(=O)O)c2ccc(F)c(CN3Cc4ncccc4OC(C)(C)C3)c2)ccc2c1nnn2C` (single isomer, unassigned; isomer 1) [Example 261], under “Homo sapiens, BEAS-2B, 48 h”, the EC50 is 100 to 1000 nM.

As to `Cc1ccc(C(CC(=O)O)c2ccc3c(nnn3C)c2C)cc1Cn1ccnc1CN1CCCCCC1` (stereo not drawn) [Example 147, 3-(3-((2-(Azepan-1-ylmethyl)-1H-imidazol-1-yl)methyl)-4-methylphenyl)-3-(1,4-dimethyl-1H-benzo[d][1,2,3]triazol-5-yl)propanoic acid, formic acid salt], the EC50 (Homo sapiens, BEAS-2B, 48 h) lay in the range of 1000 to 10000 nM.

Source of the values: patent US10604509B2, “Nrf2 regulators” (GlaxoSmithKline Intellectual Property Development Limited, priority 2015, dated 2020).
